Measured values taken from patent US20140349297A1, “FLUORESCENT DYES BASED ON ACRIDINE AND ACRIDINIUM DERIVATIVES” (Almac Sciences (Scotland) Limited, priority 2011, published 2014).
Several values for one entry are separate records, joined by “and”; a condition that tells them apart may be missing. Equal values may be shown once. Where a name gives a salt, the structure may show the parent alone.

Legend:
[1] = molecular target: T1, recombinant Lck kinase (Homo sapiens, UniProt P06239); type: biochemical; conditions: Lck 3.6 mU/well, 1 μM LLD-EPEGIYGVLF substrate; read-out: ATP Km
T1 construct: purchased EnzoLifeSciences
Protocol: Enzyme: Lck (p56Ick) (EnzoLifeSciences, 18 U/m1), 3.6 mU/well
Enzyme (3.6 mU in 5 μl buffer A) was then added to each well. […] The average lifetime values were converted to pmol phosphopeptide from a standard curve and plots of initial rates of reaction dependent on ATP concentration were used to determine the ATP Km value by non-linear regression fitting using GraphPad Prism (see FIG. 10).

[2] = Fluorescence lifetimes of acridine derivatives by TCSPC (Table 1); type: physicochemical; conditions: excitation 405 nm
Protocol: Fluorescence lifetimes were determined by time-correlated single photon counting (TCSPC) acquisition using an Edinburgh Instruments Nanotaurus fluorescence lifetime platereader, using excitation laser 405 nm and either a 438 nm band pass, 450 nm band pass or 473 nm long pass emission filter for detection.

[3] = Fluorescence analysis of 9,10-dimethylacridin-10-ium methyl sulfate (lifetime decay); type: physicochemical
Protocol: Measurements were performed in 10 mM PBS pH 7.4, excitation wavelength 350 nm and emission wavelength 490 nm for steady state, and excitation wavelength 405 nm and emission wavelength 473 nm long pass filter for fluorescence lifetime;
Steady state measurements were performed on an Edinburgh Instruments FLS920 steady state fluorimeter, with excitation wavelength of 350 nm and emission wavelength of 490 nm. Fluorescence lifetimes were determined by time-correlated single photon counting (TCSPC) acquisition using an Edinburgh Instruments Nanotaurus fluorescence lifetime platereader, using excitation laser 405 nm and a 473 nm long pass emission filter for detection.
The fluorescence excitation and emission spectra were measured at 1 μM 9,10-dimethylacridin-10-ium methyl sulfate concentration in phosphate buffered saline (PBS) solution pH 7.4. The fluorescence excitation and emission spectra, and fluorescence lifetime decay curve are shown in FIG. 1(a) and FIG. 1(b) respectively. 9,10-Dimethylacridin-10-ium methyl sulfate has an advantageously long fluorescence lifetime of circa 25-30 ns. In addition, the magnitude of the fluorescence lifetime was maintained across the three buffer systems tested (see Table 1, entry 6).

[4] = Fluorescence emission profile as a function of pH; type: physicochemical; conditions: excitation 405 nm
Protocol: The fluorescence emission profile was measured as a function of pH upon excitation at 405 nm (FIG. 3).

[5] = pH stability of fluorescence lifetime; type: physicochemical; conditions: 1 μM in 20 mM sodium phosphate buffer
Protocol: 1 μM solutions of 9,10-dimethylacridin-10-ium methyl sulfate in 20 mM sodium phosphate buffer were prepared using 0.2 M monobasic sodium phosphate and 0.2 M dibasic sodium phosphate buffer mixtures, 0.1 M HCl solution was used to adust the pH to <6 and 0.1 M NaOH solution was used to adjust the pH to >8;
An important criteria of fluorescence dyes suitable for use in biochemical and cell-based assays is the advantageousness of the fluorescence lifetime being independent of pH in the physiological range 5 to 9.

[6] = reported, Tanaka et al. 2001; cited from earlier work

T1 sequence (P06239 whole entry, species assumed): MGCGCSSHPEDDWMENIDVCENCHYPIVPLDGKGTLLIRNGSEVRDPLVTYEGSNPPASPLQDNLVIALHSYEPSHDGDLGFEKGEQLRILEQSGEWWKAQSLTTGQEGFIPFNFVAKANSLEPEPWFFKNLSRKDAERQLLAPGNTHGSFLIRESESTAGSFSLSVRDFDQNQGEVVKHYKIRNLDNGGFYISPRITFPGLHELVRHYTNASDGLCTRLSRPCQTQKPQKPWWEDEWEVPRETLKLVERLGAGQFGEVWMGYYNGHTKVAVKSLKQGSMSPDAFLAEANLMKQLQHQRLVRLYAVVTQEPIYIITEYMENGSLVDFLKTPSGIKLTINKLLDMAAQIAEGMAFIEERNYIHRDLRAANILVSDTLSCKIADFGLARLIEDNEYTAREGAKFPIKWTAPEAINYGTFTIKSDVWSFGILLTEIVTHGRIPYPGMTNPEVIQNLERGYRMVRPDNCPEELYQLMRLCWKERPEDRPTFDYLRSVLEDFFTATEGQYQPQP

Row | SMILES | Km [1] [µM] | Fluorescence Lifetime ([2]; 1 μM in 50 mM AcOH solution) [ns] | Fluorescence Lifetime ([2]; 1 μM in PBS) [ns] | Fluorescence Lifetime ([2]; 1 μM in water) [ns] | fluorescence lifetime (decay curve, FIG. 1b) ([3]; 10 mM PBS pH 7.4, excitation 405 nm, 473 nm long pass emission filter) [ns] | Fluorescence Lifetime ([3]; circa, maintained across the three buffer systems tested) | emission maximum ([4]; solutions >pH 10) | emission maximum ([4]; solutions at pH 3 to 10) | fluorescence lifetime as a function of pH [5] | pKa of methyl protons at the 9-position [6]
1 | Nc1ncnc2c1ncn2[C@@H]1O[C@H](COP(=O)(O)OP(=O)(O)OP(=O)(O)O)[C@@H](O)[C@H]1O [ATP] | 36.4 | – | – | – | – | – | – | – | – | –
2 | C[n+]1c2ccccc2cc2ccccc21 [Entry 5] | – | 32.1 | 31.9 | 14.1 | – | – | – | – | – | –
3 | Cc1c2ccccc2nc2ccccc12 [Entry 4] | – | 29.1 | 11.7 | 29.1 | – | – | – | – | – | –
4 | C[n+]1c2ccccc2c(N)c2ccccc21.[Cl-] [Entry 2] | – | 16.4 | 16.3 | 16.4 | – | – | – | – | – | –
5 | Nc1c2ccccc2nc2ccccc12 [Entry 1] | – | 15.6 | 15.6 | 15.7 | – | – | – | – | – | –
6 | c1ccc2nc3ccccc3cc2c1 [Entry 3] | – | 29.4 | 18.8 | 10.5 | – | – | – | – | – | –
7 | Cc1c2ccccc2[n+](C)c2ccccc12 [Entry 6, 9,10-dimethylacridin-10-ium methyl sulfate] | – | 29.8 | 26.2 | 30.0 | 26.2 | 25-30 ns | 425 nm and 450 nm | 460 nm and 490 nm | stable across the pH range 3 to 10 | akin to acetic acid
